The text below walks through data of BindingDB's records for doi:10.1016/j.bmcl.2015.05.099 (Mercer University, 2015).

For test [1], the target named is T1, Albumin (Homo sapiens, UniProt P02768). The experiment in a line: Binding affinity to human serum albumin with excitation at 295 nm after 30 mins by fluorescence spectrophotometric analysis.
The target of test [2] is T1, Albumin. As to the kind of experiment: Binding affinity to human serum albumin with excitation at 285 nm after 30 mins by fluorescence spectrophotometric analysis.

T1 sequence (P02768 whole entry): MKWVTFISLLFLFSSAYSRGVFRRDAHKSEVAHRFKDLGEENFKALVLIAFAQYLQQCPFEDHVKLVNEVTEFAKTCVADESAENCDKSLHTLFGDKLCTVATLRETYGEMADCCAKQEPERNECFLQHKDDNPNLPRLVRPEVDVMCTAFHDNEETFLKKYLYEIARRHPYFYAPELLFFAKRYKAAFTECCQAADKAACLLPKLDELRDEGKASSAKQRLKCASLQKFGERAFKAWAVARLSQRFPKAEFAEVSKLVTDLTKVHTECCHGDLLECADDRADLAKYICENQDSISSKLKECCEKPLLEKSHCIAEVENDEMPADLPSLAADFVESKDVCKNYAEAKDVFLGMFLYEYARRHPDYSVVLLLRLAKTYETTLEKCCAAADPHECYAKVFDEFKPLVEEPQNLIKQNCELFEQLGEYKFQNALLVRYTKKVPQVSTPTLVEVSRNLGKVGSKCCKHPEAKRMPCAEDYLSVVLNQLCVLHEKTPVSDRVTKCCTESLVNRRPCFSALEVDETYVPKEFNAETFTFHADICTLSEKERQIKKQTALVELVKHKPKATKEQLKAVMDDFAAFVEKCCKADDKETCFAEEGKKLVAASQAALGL

Broadly, the Kd is the free concentration of one partner at which half of the binding sites on the other are occupied at equilibrium, for simple one-to-one binding. A lower Kd goes with higher affinity. As to `C=C(C)[C@@H]1CC[C@]2(C(=O)N[C@H](C)C(=O)O)CC[C@]3(C)[C@H](CC[C@@H]4[C@@]5(C)CC[C@H](O)C(C)(C)[C@@H]5CC[C@]43C)[C@@H]12`, the dissociation constant Kd in test [1] was 37 µM; in test [2], 47 µM.

Consider `C=C(C)[C@@H]1CC[C@]2(C(=O)N[C@H](C)C(=O)[O-])CC[C@]3(C)[C@H](CC[C@@H]4[C@@]5(C)CC[C@H](O)C(C)(C)[C@@H]5CC[C@]43C)[C@@H]12.CCCCCCCCCCCC[N+](C)(C)Cc1ccccc1`, for which the Kd in test [1] and in test [2] was 19 µM in each case.

With `C=C(C)[C@@H]1CC[C@]2(C(=O)[O-])CC[C@]3(C)[C@H](CC[C@@H]4[C@@]5(C)CC[C@H](O)C(C)(C)[C@@H]5CC[C@]43C)[C@@H]12.CCCCCCCCCCCC[N+](C)(C)Cc1ccccc1`, the Kd in test [1] was 1.9 µM; in test [2] it was 1.6 µM.
